Several values for one entry are separate records, joined by “and”; a condition that tells them apart may be missing. Identical values can stand only once.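 Where inhibition never reached the appropriate level, the endpoint shown equals the highest concentration tested. Otherwise, values were interpolated linearly from a five-concentration, 48-hour dose response in 96-well plates. Abbreviation: GI50, concentration required for 50% inhibition of growth. TGI marks complete inhibition of growth.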
Columns and labels:
Experiment in all cases: growth of human tumour cells (NCI), 48 h
HCT-15 colon = test system: HCT-15 colon
HL-60(TB) leukemia = test system: HL-60(TB) leukemia
HOP-62 NSCLC = test system: HOP-62 NSCLC
HT29 colon = test system: HT29 colon
MOLT-4 leukemia = test system: MOLT-4 leukemia
OVCAR-3 ovarian = test system: OVCAR-3 ovarian
SF-295 CNS = test system: SF-295 CNS
SK-MEL-28 melanoma = test system: SK-MEL-28 melanoma
TK-10 renal = test system: TK-10 renal
UACC-62 melanoma = test system: UACC-62 melanoma
HS 578T breast = test system: HS 578T breast
NCI/ADR-RES ovarian = test system: NCI/ADR-RES ovarian

SMILES	TGI (HCT-15 colon) [µM]	TGI (HL-60(TB) leukemia)	TGI (HOP-62 NSCLC)	TGI (HT29 colon) [µM]	TGI (MOLT-4 leukemia) [µM]	TGI (OVCAR-3 ovarian)	TGI (SF-295 CNS)	TGI (SK-MEL-28 melanoma) [µM]	TGI (TK-10 renal)	TGI (UACC-62 melanoma)	TGI (HS 578T breast) [µM]	TGI (NCI/ADR-RES ovarian) [µM]	GI50 (HL-60(TB) leukemia)	GI50 (HOP-62 NSCLC)	GI50 (MOLT-4 leukemia)	GI50 (OVCAR-3 ovarian)	GI50 (SF-295 CNS)	GI50 (SK-MEL-28 melanoma)	GI50 (TK-10 renal)	GI50 (UACC-62 melanoma)
C/C(=C(/C)c1cc[n+](C)cc1)c1cc[n+](C)cc1	> 75	> 75 µM	> 75 µM	> 75	> 75	> 75 µM	> 75 µM	> 75	> 75 µM	> 75 µM										
O=[N+]([O-])c1cc(Cl)ccc1S(=O)(=O)c1ccc(Cl)cc1[N+](=O)[O-]	33	58 µM	35.9 µM	30.9	84.4	31.1 µM	29 µM	32	31.5 µM	31 µM										
CC[C@H]1C=CCC[C@@]2(C[C@@H]3CC[C@H]4[C@@H](C(=O)OCCCCCCCCCCCCCCCC(=O)N(CCCNC(C)=O)C[C@H](CCNC(C)=O)OC(C)=O)[C@@]5(CCC[C@@H](C)O5)NC(=[N+]34)N2)O1	3.17	2.91 µM	3.42 µM	2.7	2.99	2.03 µM	3.32 µM	2.63	2.99 µM	3.52 µM	4.83									
Cc1ccc2nc(-c3ccc(-c4nc5ccc(C)cc5o4)c(O)c3)oc2c1	> 100	> 100 µM	> 100 µM		> 100			> 100	> 100 µM	> 100 µM	> 100	> 100								
Oc1ccc2ccccc2c1NCn1nc(CCCCCCCCc2nn(CNc3c(O)ccc4ccccc34)c(=S)o2)oc1=S	> 100		> 100 µM	> 100	> 100		> 100 µM	> 100	> 100 µM	> 100 µM		> 100								
CC(CC(C)[C@H]1CCC2[C@H]3C(CC(=O)[C@@]21C)[C@@]1(C)CCC(O)C[C@H]1C[C@@H]3O)C(=O)O (some centres not stated)	> 100	> 100 µM	> 100 µM	> 100	> 100			> 100	> 100 µM	> 100 µM		> 100								
COc1cccc(N2C(=O)C3c4[nH]c5ccc(C)cc5c4C4CCC(C)CC4C3C2=O)c1 (configuration not stated)	> 100	25.3 µM	42.6 µM	> 100		> 100 µM	> 100 µM	> 100	> 100 µM	> 100 µM	64.9	> 100								
Cc1ccc(S(=O)(=O)OI(O)CC(F)(F)F)cc1	> 100	> 100 µM	> 100 µM	> 100	> 100	> 100 µM	> 100 µM	> 100	> 100 µM	> 100 µM		> 100								
N#CCN1CCN(CC#N)CCN(CC#N)CCN(CC#N)CC1		> 100 µM	> 100 µM	> 100	> 100	> 100 µM	> 100 µM	> 100	> 100 µM	> 100 µM	> 100	> 100								
O=c1[nH]cc(COCC(O)CO)c(=O)[nH]1 (configuration not stated)	> 100	> 100 µM	> 100 µM	> 100	> 100	> 100 µM	> 100 µM	> 100	> 100 µM	> 100 µM										
CCOC(=O)CNC(=O)CNC(=O)CNC(=O)CNNc1c(OCc2ccccc2)c(=O)c1=O	> 100		> 100 µM	> 100	> 100	> 100 µM		> 100	> 100 µM	> 100 µM	> 100	> 100								
CN(C(=O)c1cc2c(s1)sc1c(=O)n(C)c3ccccc3c12)c1ccccc1	> 100			> 100	> 100	> 100 µM	> 100 µM	> 100	> 100 µM	> 100 µM		77.1								
COCCNC1CCC(=O)c2[nH]c3ccccc3c21 (configuration not stated)	> 100	> 100 µM	> 100 µM	> 100	> 100	> 100 µM	> 100 µM	> 100	> 100 µM		> 100	> 100								
CNC(=O)OCc1nc(N=[N+]=[N-])n(C)c1COC(=O)NC	> 100	48.9 µM	> 100 µM	> 100	88.3	> 100 µM	> 100 µM	> 100	> 100 µM		> 100	> 100								
C=CCN1C(=O)/C(=C/c2ccc(OC)cc2)N=C1SC1OC(COC(C)=O)C(OC(C)=O)C(OC(C)=O)C1OC(C)=O (configuration not stated)	> 100	> 94 µM and 15.4 µM	40 µM and > 100 µM	22.4	> 100	30 µM and > 100 µM	48.8 µM and > 100 µM	> 100	39.6 µM and > 100 µM	48.1 µM and > 100 µM		> 100	11.5 µM and 2.9 µM	17.5 µM and 90 µM	58.3 µM and 24.7 µM	13.5 µM and 58.2 µM	21 µM and 70.3 µM	24.6 µM and > 100 µM	20.2 µM and > 100 µM	18.8 µM and 43.6 µM
O=C(/C=C/c1ccccc1Br)c1ccccc1	6.36	3.07 µM	26.2 µM	9.42		22.1 µM	23.4 µM	15.8	9.83 µM	23.6 µM	11.3	17.7								
COc1cc(/C=C2\C(=O)N(c3ccc(NC(C)=O)cc3)C(c3ccccc3)S2(=O)=O)cc(OC)c1OC (configuration not stated)	> 100	79.1 µM	> 100 µM	> 100	> 100	> 100 µM	> 100 µM	> 100	> 100 µM	> 100 µM		> 100								
C=CCN(N=O)C(=O)N(CCCCC(NC(C)=O)C(=O)NCc1ccccc1)Cc1ccccc1 (configuration not stated)	> 100	43.5 µM	> 100 µM	36.8	45.4	> 100 µM	> 100 µM	> 100	> 100 µM	> 100 µM										
COc1ccc(-c2cc(=O)c3ccc(F)cc3[nH]2)cc1		> 100 µM	> 100 µM	> 100	> 100	> 100 µM	> 100 µM	> 100	> 100 µM	> 100 µM										
